Assay results taken from ChEMBL document CHEMBL5291721, “A preclinical secondary pharmacology resource illuminates target-adverse drug reaction associations of marketed drugs” (Nat Commun, 2023).

What was measured:
Endothelin-1 receptor = molecular target: T1, Endothelin-1 receptor (Homo sapiens, UniProt P25101)
T1 sequence (P25101 whole entry): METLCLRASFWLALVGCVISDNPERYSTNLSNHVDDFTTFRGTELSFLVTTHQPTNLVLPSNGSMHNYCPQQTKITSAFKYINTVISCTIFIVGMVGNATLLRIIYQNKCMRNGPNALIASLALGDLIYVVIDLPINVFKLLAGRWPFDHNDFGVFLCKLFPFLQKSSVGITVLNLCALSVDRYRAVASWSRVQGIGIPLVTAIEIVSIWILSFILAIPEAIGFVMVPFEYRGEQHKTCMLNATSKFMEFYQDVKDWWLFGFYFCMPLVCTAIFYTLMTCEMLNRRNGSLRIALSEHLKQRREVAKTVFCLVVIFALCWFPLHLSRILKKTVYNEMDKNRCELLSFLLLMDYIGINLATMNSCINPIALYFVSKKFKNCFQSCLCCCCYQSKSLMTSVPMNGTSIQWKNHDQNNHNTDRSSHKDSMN

Adenosine receptor A1 = molecular target: T2, Adenosine receptor A1 (Homo sapiens, UniProt P30542)
T2 sequence (P30542 whole entry): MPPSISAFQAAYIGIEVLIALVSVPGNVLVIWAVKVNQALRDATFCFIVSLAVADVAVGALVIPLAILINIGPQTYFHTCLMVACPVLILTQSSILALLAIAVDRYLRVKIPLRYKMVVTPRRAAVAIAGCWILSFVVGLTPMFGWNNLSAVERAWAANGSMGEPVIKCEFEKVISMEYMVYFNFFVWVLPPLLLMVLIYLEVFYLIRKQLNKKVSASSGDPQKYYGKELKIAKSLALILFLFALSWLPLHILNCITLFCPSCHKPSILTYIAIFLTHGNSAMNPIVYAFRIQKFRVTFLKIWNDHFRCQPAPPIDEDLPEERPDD

[1] = molecular target: T3, Muscarinic acetylcholine receptor M2 (Homo sapiens, UniProt P08172); format: functional, cell-based
T3 sequence (P08172 whole entry): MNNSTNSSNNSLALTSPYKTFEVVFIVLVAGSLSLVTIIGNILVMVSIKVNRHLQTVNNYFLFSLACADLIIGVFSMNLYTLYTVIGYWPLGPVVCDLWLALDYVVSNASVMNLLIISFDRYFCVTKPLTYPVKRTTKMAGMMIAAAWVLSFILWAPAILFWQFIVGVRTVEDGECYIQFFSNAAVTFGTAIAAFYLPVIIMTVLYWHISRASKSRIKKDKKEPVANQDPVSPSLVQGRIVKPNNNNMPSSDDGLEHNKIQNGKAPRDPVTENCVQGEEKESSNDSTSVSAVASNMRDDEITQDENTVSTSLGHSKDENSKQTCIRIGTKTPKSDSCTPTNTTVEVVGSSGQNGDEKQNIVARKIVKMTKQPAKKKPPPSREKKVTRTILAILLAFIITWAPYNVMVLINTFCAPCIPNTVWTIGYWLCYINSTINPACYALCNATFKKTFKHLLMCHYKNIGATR

Glucocorticoid receptor = molecular target: T4, Glucocorticoid receptor (Homo sapiens, UniProt P04150)
T4 sequence (P04150 whole entry): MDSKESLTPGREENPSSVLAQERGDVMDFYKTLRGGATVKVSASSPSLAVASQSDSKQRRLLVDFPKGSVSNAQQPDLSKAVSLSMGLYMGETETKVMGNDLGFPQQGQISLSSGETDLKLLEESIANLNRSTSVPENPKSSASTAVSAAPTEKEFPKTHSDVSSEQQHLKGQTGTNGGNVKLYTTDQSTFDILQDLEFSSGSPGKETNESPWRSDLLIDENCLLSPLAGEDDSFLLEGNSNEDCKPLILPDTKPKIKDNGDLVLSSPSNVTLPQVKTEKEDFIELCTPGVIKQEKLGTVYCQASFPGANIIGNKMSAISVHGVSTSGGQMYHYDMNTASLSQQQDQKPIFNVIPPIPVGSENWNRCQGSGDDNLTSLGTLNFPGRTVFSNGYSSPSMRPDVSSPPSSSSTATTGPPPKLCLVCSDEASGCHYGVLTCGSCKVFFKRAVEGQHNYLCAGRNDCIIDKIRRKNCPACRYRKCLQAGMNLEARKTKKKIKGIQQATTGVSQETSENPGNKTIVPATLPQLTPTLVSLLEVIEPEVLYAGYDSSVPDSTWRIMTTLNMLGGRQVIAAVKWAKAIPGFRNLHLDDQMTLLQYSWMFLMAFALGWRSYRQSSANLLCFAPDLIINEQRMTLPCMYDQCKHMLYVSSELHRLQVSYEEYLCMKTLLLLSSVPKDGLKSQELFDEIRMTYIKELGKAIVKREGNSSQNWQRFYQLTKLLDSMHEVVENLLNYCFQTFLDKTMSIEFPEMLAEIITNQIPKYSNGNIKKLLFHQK

[2] = molecular target: T5, Equilibrative nucleoside transporter 1 (Homo sapiens, UniProt Q99808)
T5 sequence (Q99808 whole entry): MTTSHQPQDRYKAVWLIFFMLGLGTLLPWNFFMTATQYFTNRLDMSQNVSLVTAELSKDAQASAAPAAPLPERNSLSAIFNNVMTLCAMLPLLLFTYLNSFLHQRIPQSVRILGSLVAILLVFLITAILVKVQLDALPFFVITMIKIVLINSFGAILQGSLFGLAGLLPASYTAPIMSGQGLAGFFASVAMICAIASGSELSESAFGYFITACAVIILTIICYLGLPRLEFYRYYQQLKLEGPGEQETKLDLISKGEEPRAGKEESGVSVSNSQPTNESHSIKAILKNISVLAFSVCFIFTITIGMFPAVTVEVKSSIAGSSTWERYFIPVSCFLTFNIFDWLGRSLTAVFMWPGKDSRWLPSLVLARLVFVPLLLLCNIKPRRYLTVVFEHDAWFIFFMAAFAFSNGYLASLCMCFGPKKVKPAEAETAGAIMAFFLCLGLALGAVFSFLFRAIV

B2 bradykinin receptor = molecular target: T6, B2 bradykinin receptor (Homo sapiens, UniProt P30411)
T6 sequence (P30411 whole entry): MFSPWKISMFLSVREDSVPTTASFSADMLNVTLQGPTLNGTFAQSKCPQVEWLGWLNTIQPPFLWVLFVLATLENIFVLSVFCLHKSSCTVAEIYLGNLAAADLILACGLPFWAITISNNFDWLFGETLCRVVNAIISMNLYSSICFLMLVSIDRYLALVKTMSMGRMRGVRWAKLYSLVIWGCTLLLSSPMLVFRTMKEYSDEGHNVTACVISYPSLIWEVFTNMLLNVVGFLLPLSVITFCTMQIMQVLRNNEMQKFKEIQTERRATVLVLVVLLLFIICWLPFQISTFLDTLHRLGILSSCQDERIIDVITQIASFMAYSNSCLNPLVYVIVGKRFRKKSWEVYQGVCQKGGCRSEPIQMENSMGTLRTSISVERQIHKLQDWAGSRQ

Measured: AC50
Further: assay procedure not described here.

CCCCCNC(=N)N/N=C/c1c[nH]c2ccc(OC)cc12 [TEGASEROD]
> 30 µM: all assays above
